Assays:
Type in all cases: ADME, organism-based
Settings in all cases: in vivo
[1] = system: Plasma; assay: Drug level in Sprague-Dawley rat plasma treated with 3FDT at 40 mg/kg, iv administered as single dose after 4 to 24 hrs by HPLC-TIC chromatography
[2] = Drug level in Sprague-Dawley rat urine treated with 3FDT at 40 mg/kg, iv administered as single dose after 24 hrs by HPLC-TIC chromatography
[3] = Drug level in Sprague-Dawley rat feces treated with 3FDT at 40 mg/kg, iv administered as single dose after 24 hrs by HPLC-TIC chromatography

Measured: Drug metabolism

CC(=O)O[C@@]12CO[C@@H]1C[C@@H](O)[C@@]1(C)C(=O)[C@H](O)C3=C(C)[C@@H](OC(=O)[C@H](O)[C@@H](NC(=O)OC(C)(C)C(F)(F)F)c4ccccc4)C[C@@](O)([C@@H](OC(=O)c4ccccc4)C12)C3(C)C (stereo partly drawn)
metabolite_detected: [1] | [2] | [3]
